{
  "source": "paper PMC3466269",
  "about": "“A Comprehensive Strategy to Discover Inhibitors of the Translesion Synthesis DNA Polymerase κ” (PLoS ONE, 2012)",
  "key": {"[1]": {"target": "T1, Human pol η (residues 1–437) (Homo sapiens, UniProt Q9Y253)", "T1 construct": "Human pol η (residues1–437) was purified following the same procedures; made in house", "T1 sequence (Q9Y253 1-437)": "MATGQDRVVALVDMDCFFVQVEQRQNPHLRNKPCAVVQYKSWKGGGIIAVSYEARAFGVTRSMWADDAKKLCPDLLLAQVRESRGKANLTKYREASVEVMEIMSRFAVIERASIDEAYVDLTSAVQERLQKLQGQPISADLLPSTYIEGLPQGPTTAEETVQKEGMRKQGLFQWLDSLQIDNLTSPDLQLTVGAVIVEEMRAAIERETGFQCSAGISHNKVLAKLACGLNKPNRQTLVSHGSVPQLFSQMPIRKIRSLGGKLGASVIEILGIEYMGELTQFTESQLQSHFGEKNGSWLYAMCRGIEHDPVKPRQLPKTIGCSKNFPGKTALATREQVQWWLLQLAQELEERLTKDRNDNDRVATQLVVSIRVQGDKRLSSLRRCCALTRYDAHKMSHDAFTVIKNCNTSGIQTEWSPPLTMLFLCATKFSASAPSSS", "experiment": "Radioactive gel-based primer extension assay on non-damaged DNA, pol η", "assay_type": "biochemical", "settings": "average ± standard error, three experiments", "description": "The reactions with pol κ, pol η, and pol ι were carried out in the buffers containing 25 mM Tris-HCl, pH 7.5, 8 mM MgCl2, 10% glycerol, 100 µg/mL bovine serum albumin, and 5 mM DTT. Buffers for pol δ reactions contained 40 mM Hepes-KOH, pH 6.8, 10% glycerol, 200 µg/mL bovine serum albumin, 1 mM DTT, and 8 mM MgCl2. Final concentration of pol κ, pol η, pol ι, or pol δ in the reaction was 0.25 nM, 1 nM, 2.5 nM, or 4 nM, respectively. In this assay, a polymerase was preincubated with the compound for 15 min at room temperature. Primer extensions were then initiated by the addition of DNA substrate at final concentration of 5 nM and carried out for 30 min at room temperature in the presence of 100 µM dCTP and dGTP. The reactions were terminated by the addition of an equal volume of a dye solution containing 95% (v/v) formamide, 10 mM EDTA, 0.03% (w/v) xylene cyanol, and 0.03% (w/v) bromphenol blue. Reaction products were separated through a 15% acrylamide gel containing 8 M urea and visualized with a PhosphorImager screen. The ratio of extended primer to the total amount of primer was measured using ImageQuant 5.2 software to calculate the percentage of primer extended. IC50 values were determined by fitting the data to variable slope four-parameter equations using GraphPad Prism 5. […]"}, "XP30RO cells (XP-V)": {"system": "XP30RO cells (XP-V)", "experiment": "Cell survival assay, CellTiter-Glo Luminescent Cell Viability Assay, with or without UV", "assay_type": "cell-based, Human", "settings": "CellTiter-Glo (ATP content); 24 µM, UV 1.5, 4.5 or 7.5 J/m^2", "excerpt": "Supplementary file pone.0045032.s001.tif: Figure S1 Effect of candesartan cilexetil on UV-induced cytotoxicity using CellTiter-Glo Luminescent Cell Viability Assay. […] I: candesartan cilexetil. (TIF) Click here for additional data file."}, "Human pol ι": {"target": "T2, Human pol ι (Homo sapiens, UniProt Q9UNA4)", "T2 construct": "purchased Enzymax Inc. (Lexington, KY)", "T2 sequence (Q9UNA4 1-740)": "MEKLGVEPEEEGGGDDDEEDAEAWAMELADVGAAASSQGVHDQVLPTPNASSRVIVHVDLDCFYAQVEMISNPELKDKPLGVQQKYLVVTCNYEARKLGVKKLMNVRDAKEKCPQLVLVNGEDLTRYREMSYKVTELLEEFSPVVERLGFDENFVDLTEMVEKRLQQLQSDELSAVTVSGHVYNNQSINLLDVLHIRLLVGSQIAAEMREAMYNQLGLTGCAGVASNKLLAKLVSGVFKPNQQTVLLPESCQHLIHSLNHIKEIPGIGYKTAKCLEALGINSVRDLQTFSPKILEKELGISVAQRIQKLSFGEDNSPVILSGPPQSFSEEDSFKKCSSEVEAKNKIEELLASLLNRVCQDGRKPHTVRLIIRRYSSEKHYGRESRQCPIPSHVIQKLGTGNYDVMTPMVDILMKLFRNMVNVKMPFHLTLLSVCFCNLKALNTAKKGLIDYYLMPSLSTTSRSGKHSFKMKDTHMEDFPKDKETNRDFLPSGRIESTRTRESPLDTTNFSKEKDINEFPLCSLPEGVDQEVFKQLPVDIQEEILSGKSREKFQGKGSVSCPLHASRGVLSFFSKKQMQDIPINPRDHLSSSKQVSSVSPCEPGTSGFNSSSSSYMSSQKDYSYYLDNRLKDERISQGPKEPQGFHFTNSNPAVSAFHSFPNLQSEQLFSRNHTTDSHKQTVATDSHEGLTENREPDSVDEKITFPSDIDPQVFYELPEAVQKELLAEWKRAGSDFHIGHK", "experiment": "Radioactive gel-based primer extension assay on non-damaged DNA, pol ι", "assay_type": "biochemical", "settings": "average ± standard error, three experiments", "description": "(§1) The reactions with pol κ, pol η, and pol ι were carried out in the buffers containing 25 mM Tris-HCl, pH 7.5, 8 mM MgCl2, 10% glycerol, 100 µg/mL bovine serum albumin, and 5 mM DTT. Buffers for pol δ reactions contained 40 mM Hepes-KOH, pH 6.8, 10% glycerol, 200 µg/mL bovine serum albumin, 1 mM DTT, and 8 mM MgCl2. Final concentration of pol κ, pol η, pol ι, or pol δ in the reaction was 0.25 nM, 1 nM, 2.5 nM, or 4 nM, respectively. In this assay, a polymerase was preincubated with the compound for 15 min at room temperature. Primer extensions were then initiated by the addition of DNA substrate at final concentration of 5 nM and carried out for 30 min at room temperature in the presence of 100 µM dCTP and dGTP. The reactions were terminated by the addition of an equal volume of a dye solution containing 95% (v/v) formamide, 10 mM EDTA, 0.03% (w/v) xylene cyanol, and 0.03% (w/v) bromphenol blue. Reaction products were separated through a 15% acrylamide gel containing 8 M urea and visualized with a PhosphorImager screen. The ratio of extended primer to the total amount of primer was measured using ImageQuant 5.2 software to calculate the percentage of primer extended. IC50 values were determined by fitting the data to variable slope four-parameter equations using GraphPad Prism 5."}, "Human pol κ": {"target": "T3, Human pol κ (Homo sapiens, UniProt Q9UBT6)", "T3 construct": "Human pol κ (residues 19–526) was purified as previously reported; made in house", "T3 sequence (Q9UBT6 19-526)": "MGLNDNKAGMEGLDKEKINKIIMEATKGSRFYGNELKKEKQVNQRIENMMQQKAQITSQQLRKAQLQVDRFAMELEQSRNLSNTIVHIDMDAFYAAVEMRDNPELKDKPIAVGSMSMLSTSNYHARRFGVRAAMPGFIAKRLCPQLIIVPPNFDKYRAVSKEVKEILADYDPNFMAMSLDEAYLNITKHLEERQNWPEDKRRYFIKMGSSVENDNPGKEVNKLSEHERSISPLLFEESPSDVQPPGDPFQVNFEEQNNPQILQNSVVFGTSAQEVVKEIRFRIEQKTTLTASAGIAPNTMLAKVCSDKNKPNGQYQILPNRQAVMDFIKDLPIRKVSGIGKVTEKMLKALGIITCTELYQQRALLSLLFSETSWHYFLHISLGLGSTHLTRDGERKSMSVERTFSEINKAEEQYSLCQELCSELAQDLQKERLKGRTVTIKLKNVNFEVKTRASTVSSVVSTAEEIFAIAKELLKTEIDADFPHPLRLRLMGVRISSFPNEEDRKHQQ", "experiment": "Radioactive gel-based primer extension assay on non-damaged DNA, pol κ", "assay_type": "biochemical", "settings": "primer extension, non-damaged DNA, 0.25 nM pol κ; average ± standard error, three experiments; read-out: gel: non-damaged: IC50", "description": "as §1"}},
  "data": [
    {"compound": "CCOc1nc2cccc(C(=O)OC(C)OC(=O)OC3CCCCC3)c2n1Cc1ccc(-c2ccccc2-c2nnn[nH]2)cc1", "note": "(stereo not shown) [candesartan cilexetil, Candesartan cilexetil]", "values": [
      {"measurement": "IC50", "setting": "[1]", "result": "11.2 ± 1", "unit": "µM"},
      {"measurement": "Effect on UV-induced cytotoxicity", "setting": "XP30RO cells (XP-V)", "result": "comparable results were obtained"},
      {"measurement": "IC50", "setting": "Human pol ι", "result": "6.2 ± 0.6", "unit": "µM"},
      {"measurement": "IC50", "setting": "Human pol κ", "result": "9.2 ± 0.5", "unit": "µM"}
    ]}
  ]
}
